# Test results published in PMC8320704 (Journal of medicinal chemistry, 2015).
# Several values for one entry are separate records, joined by “and”; a condition that tells them apart may be missing. Equal entries are not always repeated. Where two headings read alike, the source gives them in different places.
# Experiments:
# HIV-1 IN (3′-P) [1] = biological target: T1, HIV-1 IN (3′-P) (Human immunodeficiency virus type 1 group M subtype B, UniProt P04585); assay: HIV-1 IN gel-based assay, 3′-processing; assay type: biochemical
# HIV-1 IN (ST) [2] = biological target: T2, HIV-1 IN (ST) (Human immunodeficiency virus type 1 group M subtype B, UniProt P04585); assay: HIV-1 IN gel-based assay, strand transfer; assay type: biochemical
# HIV-1 RT RNase H = HIV-1 RT RNase H (Human immunodeficiency virus type 1 group M subtype B, UniProt P04585); assay: HIV-1 RT RNase H inhibition; assay type: biochemical
# HIV-1 IN (3′-P) [3] = biological target: T1, HIV-1 IN (3′-P); details: read-out: 3′-P IC50, previously reported compounds; cited from earlier work
# HIV-1 IN (ST) [4] = biological target: T2, HIV-1 IN (ST); details: read-out: ST IC50, previously reported compound; cited from earlier work
smiles,measurement,setting,value
"CCOC(=O)/C(O)=C/C(=O)c1cn(Cc2ccc(OC)cc2)c2ccccc2c1=O [10h, 4-[1-(4-Methoxyphenyl)methyl-4(1H)-quinolinon-3-yl]-2-hydroxy-4-oxo-2-butenoic Acid Ethyl Ester]",IC50,HIV-1 IN (3′-P) [1],> 37 µM
same,IC50,HIV-1 IN (ST) [2],> 37 µM
"CCOC(=O)/C(O)=C/C(=O)c1cn(Cc2ccc(C)cc2C)c2ccccc2c1=O [10q, 4-[1-(2,4-Dimethylphenyl)methyl-4(1H)-quinolinon-3-yl]-2-hydroxy-4-oxo-2-butenoic Acid Ethyl Ester]",IC50,HIV-1 IN (ST) [2],> 111 µM
same,IC50,"HIV-1 RT RNase H; RNase H IC50, Table 1",> 50 µM
O=C(O)/C(O)=C/C(=O)c1cn(Cc2ccc(F)cc2)c2cc(Cl)c(Cl)cc2c1=O [compound 8],IC50,"HIV-1 RT RNase H; RNase H IC50, text",42 µM
same,IC50,HIV-1 IN (3′-P) [3],> 50 µM
same,IC50,HIV-1 IN (ST) [4],0.033 µM and 0.04 µM
"CCOC(=O)/C(O)=C/C(=O)c1cn(Cc2ccc(Cl)cc2Cl)c2ccccc2c1=O [10o, 4-[1-(2,4-Dichlorophenyl)methyl-4(1H)-quinolinon-3-yl]-2-hydroxy-4-oxo-2-butenoic Acid Ethyl Ester]",IC50,HIV-1 IN (ST) [2],> 111 µM
same,IC50,"HIV-1 RT RNase H; RNase H IC50, Table 1",> 50 µM
"O=C(O)/C(O)=C/C(=O)c1cn(CCCCc2ccccc2)c2ccccc2c1=O [11x, 2-Hydroxy-4-oxo-4-(4-oxo-1-(4-phenylbutyl)-1,4-dihydroquinolin-3-yl)but-2-enoic Acid]",IC50,HIV-1 IN (3′-P) [1],> 333 µM
same,IC50,HIV-1 IN (ST) [2],< 0.45 µM
"CCOC(=O)/C(O)=C/C(=O)c1cn(Cc2ccc([N+](=O)[O-])cc2)c2ccccc2c1=O [10i, 4-[1-(4-Nitrophenyl)methyl-4(1H)-quinolinon-3-yl]-2-hydroxy-4-oxo-2-butenoic Acid Ethyl Ester]",IC50,HIV-1 IN (3′-P) [1],> 37 µM
same,IC50,HIV-1 IN (ST) [2],> 37 µM
"CCOC(=O)/C(O)=C/C(=O)c1cn(Cc2ccc(Cl)cc2)c2ccccc2c1=O [10f, 4-[1-(4-Chlorophenyl)methyl-4(1H)-quinolinon-3-yl]-2-hydroxy-4-oxo-2-butenoic Acid Ethyl Ester]",IC50,HIV-1 IN (3′-P) [1],> 37 µM
same,IC50,HIV-1 IN (ST) [2],> 37 µM
